# Measurements as given in patent US7879838B2, “Heteroaryl substituted pyrazinyl-piperazine-piperidines with CXCR3 antagonist activity” (Schering Corporation, priority 2005, dated 2011).
# pIC50: −log10 of the molar value.
# Molecular target: T1, Human CXCR3 (N-delta 4) (Homo sapiens, UniProt P49682)
# T1 construct: CD8 leader (N); Flag tag; expressed in transfected cells; membranes prepared
# T1 sequence (P49682 5-368 limits assumed): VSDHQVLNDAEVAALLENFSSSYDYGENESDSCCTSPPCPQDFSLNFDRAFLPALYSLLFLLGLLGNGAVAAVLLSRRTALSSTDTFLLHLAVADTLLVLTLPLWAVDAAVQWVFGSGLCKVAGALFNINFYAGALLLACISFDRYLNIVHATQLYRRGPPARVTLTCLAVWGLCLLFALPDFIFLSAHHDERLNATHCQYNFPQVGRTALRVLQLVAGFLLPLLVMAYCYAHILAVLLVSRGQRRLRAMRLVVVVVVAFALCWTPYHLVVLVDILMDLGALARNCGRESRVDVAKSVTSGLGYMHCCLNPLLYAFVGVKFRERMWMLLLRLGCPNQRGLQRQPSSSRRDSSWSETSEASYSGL
# Assay: Human CXCR3 (N-delta 4) scintillation proximity assay (SPA), [125I] IP-10 binding to Ba/F3-hCXCR3 membranes
# Conditions: IC50 rating; 25 pM [125I] IP-10, membranes of Ba/F3 cells expressing human CXCR3 (N-delta 4)
# Text: The inventive compounds can readily be evaluated to determine activity at The CXCR3 receptors by known methods, such as, for example, Development of Human CXCR3 (N-delta 4) Binding Assay.
# Cloning and Expression of Human CXCR3 (N-delta 4):
# The DNA encoding human CXCR3 was cloned by PCR using human genomic DNA (Promega, Madison, Wis.) as a template. The PCR primers were designed based on the published sequence of human orphan receptor GPR9 (1) with incorporated restriction sites, a Kozak consensus sequence, CD8 leader and Flag tag. The PCR product was subcloned into the mammalian expression vector pME18Sneo, a derivative of the SR-alpha expression vector (designated as pME18Sneo-hCXCR3 (N-delta 4).
# IL-3-dependent mouse pro-B cells Ba/F3 were transfected by electroporation in 0.4 ml Dulbecco's PBS containing 4×10^6 cells with 20 μg of pME18Sneo-hCXCR3 (N-delta 4) plasmid DNA. Cells were pulsed at 400 Volts, 100 OHMs, 960 μFd. The transfected cells were under selection with 1 mg/ml G418 (Life Technologies, Gaithersburg, Md.). G418-resistant Ba/F3 clones were screened for CXCR3 expression by specific binding of [^125I] IP-10 (NEN Life Science Products, Boston, Mass.).
# Preparation of Ba/F3-hCXCR3 (N-delta 4) Membranes
# Ba/F3 cells expressing human CXCR3 (N-delta 4) were pelleted and resuspended in the lysis buffer containing 10 mM HEPES, pH 7.5 and Complete® protease inhibitors (1 tablet per 100 ml) (Boehringer Mannheim, Indianapolis, Ind.) at a cell density of 20×10^6 cells per ml. After 5 minutes incubation on ice, cells were transferred to 4639 cell disruption bomb (Parr Instrument, Moline, Ill.) and applied with 1,500 psi of nitrogen for 30 minutes on ice. Large cellular debris was removed by centrifugation at 1,000×g. Cell membrane in the supernatant was sedimented at 100,000×g. The membrane was resuspended in the lysis buffer supplemented with 10% sucrose and stored at −80° C. Total protein concentration of the membrane was determined by BCA method from Pierce (Rockford, Ill.).
# Human CXCR3 (N-delta 4) Scintillation Proximity Assay (SPA)
# For each assay point, 2 μg of membrane was preincubated for 1 hr with 300 μg wheat germ agglutinin (WGA) coated SPA beads (Amersham, Arlington Heights, Ill.) in the binding buffer (50 mM HEPES, 1 mM CaCl2, 5 mM MgCl2, 125 mM NaCl, 0.002% NaN3, 1.0% BSA) at room temperature. The beads were spun down, washed once, resuspended in the binding buffer and transferred to a 96-well Isoplate (Wallac, Gaithersburg, Md.). 25 pM of [^125I] IP-10 with tested compounds in a series of titration were added to start the reaction. After 3 hr reaction at room temperature, the amount of [^125I] IP-10 bound to the SPA beads was determined with a Wallac 1450 Microbeta counter.
# The Ki values for the various example compounds of the present invention are given in the afore-mentioned Table 1. From these values, it would be apparent to the skilled artisan that the compounds of the invention have excellent utility CXCR3 antagonists.
row,Structure (SMILES),pIC50
1,CC[C@H]1CN(c2nc(N)c(C(=O)NC)nc2Cl)CCN1C1CCN(C(=O)c2ccnc(Cl)c2)CC1 [compound 110],< 7.00
2,CC[C@H]1CN(c2nc(N)c(C(=O)NC3CC3)nc2Cl)CCN1C1CCN(Cc2cc(C)nn2C)CC1 [compound 74],< 7.00
3,CC[C@H]1CN(c2nc(N)c(C(=O)NCCO)nc2Cl)CCN1C1CCN(Cc2cc3ccccc3nc2Cl)CC1 [compound 94],< 7.00
4,CC[C@H]1CN(c2nc(N)c(C(=O)O)nc2Cl)CCN1C1CCN(C(=O)c2ccc(Cl)nc2N)CC1 [compound 109],< 7.00
5,CC[C@H]1CN(c2nc(N)c(C(=O)Nc3ncccc3O)nc2Cl)CCN1C1CCN(C(=O)c2ccc(Cl)nc2N)CC1 [compound 89],< 7.00
6,CC[C@H]1CN(c2nc(N)c(C(=O)NCCO)nc2Cl)CCN1C1CCN(Cc2ccc3nccn3c2)CC1 [compound 104],< 7.00
7,CC[C@H]1CN(c2nc(N)c(C(=O)NC3CC3)nc2Cl)CCN1C1CCN(Cc2cnc(-c3ccccc3)nc2C)CC1 [compound 145],< 7.00
8,CC[C@H]1CN(c2nc(N)c(C(=O)NN)nc2Cl)CCN1C1CCN(C(=O)c2c(C)noc2C)CC1 [compound 102],< 7.00
9,CC[C@H]1CN(c2nc(N)c(C(=O)NC3CCC(O)CC3)nc2Cl)CCN1C1CCN(C(=O)c2ccc(Cl)nc2N)CC1 (stereo partly shown) [compound 93],< 7.00
10,CC[C@H]1CN(c2nc(N)c(C(N)=O)nc2Cl)CCN1C1CCN(C(=O)c2ccc(-n3cccc3)nc2)CC1 [compound 88],< 7.00
11,CC[C@H]1CN(c2nc(N)c(C(=O)NCCO)nc2Cl)CCN1C1CCN(C(=O)c2ccc(C)nc2Cl)CC1 [compound 138],< 7.00
12,CC[C@H]1CN(c2nc(N)c(C(=O)NC)nc2Cl)CCN1C1CCN(C(=O)c2cnc(C)cn2)CC1 [compound 112],< 7.00
13,CC[C@H]1CN(c2nc(N)c(C(=O)NCC(C)(C)O)nc2Cl)CCN1C1CCN(C(=O)c2ccc(Cl)nc2N)CC1 [compound 82],< 7.00
14,CC[C@H]1CN(c2ncc(C(=O)O)nc2Cl)CCN1C1CCN(C(=O)c2ccc(Cl)nc2N)CC1 [compound 99],< 7.00
15,CC[C@H]1CN(c2nc(N)c(C(=O)NC(=N)N3CCCC3)nc2Cl)CCN1C1CCN(C(=O)c2ccc(Cl)nc2N)CC1 [compound 95],< 7.00
16,CC[C@H]1CN(c2nc(N)c(C(=O)NC3CC3)nc2Cl)CCN1C1CCN(Cc2c(C)nn(C)c2C)CC1 [compound 81],< 7.00
17,CC[C@H]1CN(c2nc(N)c(C(=O)NCCN(C)C)nc2Cl)CCN1C1CCN(C(=O)c2ccc(Cl)nc2N)CC1 [compound 64],7.00 to 7.60
18,CC[C@H]1CN(c2nc(N)c(C(N)=O)nc2Cl)CCN1C1CCN(Cc2ccc(Cl)c3[nH]c(=O)[nH]c23)CC1 [compound 143],< 7.00
19,CC[C@H]1CN(c2nc(N)c(C(=O)NN)nc2Cl)CCN1C1CCN(C(=O)c2ccc(-n3cccc3)nc2)CC1 [compound 69],7.00 to 7.60
20,CC[C@H]1CN(c2nc(N)c(C(=O)NC3CCS(=O)(=O)C3)nc2Cl)CCN1C1CCN(C(=O)c2ccc(Cl)nc2N)CC1 (stereo partly shown) [compound 54],7.00 to 7.60

# Now from value to molecule:
row,pIC50,Structure (SMILES)
1,> 7.60,CC[C@H]1CN(c2ncc(C(=O)OC)nc2C)CCN1C1CCN(C(=O)c2ccc(Cl)nc2N)CC1 [compound 161]
2,7.00 to 7.60,CC[C@H]1CN(c2nc(N)c(C(=O)NCc3ccco3)nc2Cl)CCN1C1CCN(C(=O)c2ccc(Cl)nc2N)CC1 [compound 57]
3,7.00 to 7.60,CC[C@H]1CN(c2nc(N)c(C(=O)NCCO)nc2Cl)CCN1C1CCN(Cc2ccc(Cl)nc2N2CCOCC2)CC1 [compound 66]
4,7.00 to 7.60,CC[C@H]1CN(c2nc(N)c(C(N)=O)nc2Cl)CCN1C1CCN(Cc2ccc(Cl)nc2)CC1 [compound 49]
5,> 7.60,CC[C@H]1CN(c2nc(N)c(C(=O)NCCC#N)nc2Cl)CCN1C1CCN(C(=O)c2ccc(Cl)nc2N)CC1 [compound 26]
6,> 7.60,CC[C@H]1CN(c2ncc(C(=O)NC3CC3)nc2C)CCN1C1CCN(C(=O)c2ccc(Cl)nc2N)CC1 [Compound No. 155]
7,> 7.60,CC[C@H]1CN(c2ncc(C(=O)NC(C)(C)C)nc2Cl)CCN1C1CCN(C(=O)c2ccc(Cl)nc2N)CC1 [compound 120]
8,> 7.60,CC[C@H]1CN(c2ncc(C(=O)NC)nc2C)[C@H](C)CN1C1CCN(C(=O)c2ccc(Cl)nc2N)CC1 [compound 163]
9,> 7.60,CCNC(=O)c1cnc(N2C[C@H](CC)N(C3CCN(C(=O)c4ccc(Cl)nc4N)CC3)C[C@H]2C)c(C)n1 [compound 160]
10,> 7.60,CC[C@H]1CN(c2ncc(C(=O)NC3CCC3)nc2C(F)(F)F)CCN1C1CCN(C(=O)c2ccc(Cl)nc2N)CC1 [compound 181]
11,> 7.60,CC[C@H]1CN(c2nc(N)c(C(=O)NC)nc2Cl)CCN1C1CCN(C(=O)c2cc(F)c(Cl)nc2Cl)CC1 [compound 45]
12,7.00 to 7.60,CC[C@H]1CN(c2nc(N)c(C(=O)NC3CCOC3=O)nc2Cl)CCN1C1CCN(C(=O)c2ccc(Cl)nc2N)CC1 (stereo partly shown) [compound 55]
13,> 7.60,CC[C@H]1CN(c2ncc(C(=O)NC3CC3)nc2C)[C@H](C)CN1C1CCN(C(=O)c2ccc(Cl)nc2N)CC1 [compound 159]
14,> 7.60,CC[C@H]1CN(c2nc(N)c(C(=O)N[C@H]3CCC[C@@H]3O)nc2Cl)CCN1C1CCN(C(=O)c2ccc(Cl)nc2N)CC1 [compound 42]
15,> 7.60,CC[C@H]1CN(c2nc(NCCC(=O)OC)c(C(=O)NC3CC3)nc2Cl)CCN1C1CCN(C(=O)c2ccc(Cl)nc2N)CC1 [compound 30]
16,7.00 to 7.60,CC[C@H]1CN(c2nc(N)c(C(N)=O)nc2Cl)CCN1C1CCN(C(=O)c2cc(F)c(Cl)nc2Cl)CC1 [compound 56]
17,7.00 to 7.60,CC[C@H]1CN(c2nc(N)c(C(=O)NN)nc2Cl)CCN1C1CCN(C(=O)c2ccc(Cl)nc2N)CC1 [compound 65]
18,> 7.60,CC[C@H]1CN(c2ncc(C(=O)NC)nc2Cl)CCN1C1CCN(C(=O)c2ccc(Cl)nc2N)CC1 [compound 122]
19,> 7.60,CC[C@H]1CN(c2nc(N)c(C(=O)NC)nc2Cl)CCN1C1CCN(Cc2coc3ccc(Cl)cc3c2=O)CC1 [compound 140]
20,> 7.60,CC[C@H]1CN(c2nc(N)c(C(=O)NCC3CC3)nc2Cl)CCN1C1CCN(C(=O)c2ccc(Cl)nc2N)CC1 [compound 21]
21,> 7.60,CC[C@H]1CN(c2ncc(C(=O)NC3(C)CC3)nc2C)[C@H](C)CN1C1CCN(C(=O)c2ccc(Cl)nc2N)CC1 [compound 174]
22,7.00 to 7.60,CC[C@H]1CN(c2nc(N)c(C(=O)NC3CCOC3)nc2Cl)CCN1C1CCN(C(=O)c2ccc(Cl)nc2N)CC1 (stereo partly shown) [compound 51]
23,> 7.60,CC[C@H]1CN(c2nc(N)c(C(=O)NCCO)nc2Cl)CCN1C1CCN(Cc2ccc(OC)nc2)CC1 [compound 39]
24,7.00 to 7.60,CC[C@H]1CN(c2nc(N)c(C(=O)NCCN3CCCC3)nc2Cl)CCN1C1CCN(C(=O)c2ccc(Cl)nc2N)CC1 [compound 52]
25,> 7.60,CC[C@H]1CN(c2nc(N)c(C(=O)NCCO)nc2Cl)CCN1C1CCN(Cc2ccc(Cl)nc2)CC1 [compound 20]
26,> 7.60,CC[C@H]1CN(c2nc(N)c(C(=O)NC)nc2Cl)CCN1C1CCN(Cc2coc3cc(C)c(Cl)cc3c2=O)CC1 [compound 144]
27,> 7.60,CC[C@H]1CN(c2ncc(C(=O)NC3CC3)nc2Cl)CCN1C1CCN(C(=O)c2ccc(Cl)nc2N)CC1 [compound 119]
28,7.00 to 7.60,CC[C@H]1CN(c2nc(N)c(C(=O)NCc3cccs3)nc2Cl)CCN1C1CCN(C(=O)c2ccc(Cl)nc2N)CC1 [compound 62]
29,> 7.60,CCNC(=O)NCc1nc(Cl)c(N2CCN(C3CCN(C(=O)c4ccc(Cl)nc4N)CC3)[C@@H](CC)C2)nc1N [compound 47]
